Data taken from patent US9382254B2, “Compounds and pharmaceutical compositions thereof for the treatment of cystic fibrosis” (Galapagos NV, priority 2013, dated 2016).

Experiments:
CFTR ΔF508 mutant = target: T1, CFTR ΔF508 mutant (Homo sapiens, UniProt P13569, DEL508-508); assay: YFP-halide influx assay for the CFTR-ΔF508 mutation (384 well, FDSS/μCell); type: cell-based; conditions: CFBE41o- cells, CFTR-ΔF508, 1×D-PBS, fluorescence after 36 seconds
T1 construct: expressed in transfected cells; host or cells: CFBE41o- (adenoviral transduction)
T1 sequence (P13569 with tags, fused parts or gaps DEL508-508): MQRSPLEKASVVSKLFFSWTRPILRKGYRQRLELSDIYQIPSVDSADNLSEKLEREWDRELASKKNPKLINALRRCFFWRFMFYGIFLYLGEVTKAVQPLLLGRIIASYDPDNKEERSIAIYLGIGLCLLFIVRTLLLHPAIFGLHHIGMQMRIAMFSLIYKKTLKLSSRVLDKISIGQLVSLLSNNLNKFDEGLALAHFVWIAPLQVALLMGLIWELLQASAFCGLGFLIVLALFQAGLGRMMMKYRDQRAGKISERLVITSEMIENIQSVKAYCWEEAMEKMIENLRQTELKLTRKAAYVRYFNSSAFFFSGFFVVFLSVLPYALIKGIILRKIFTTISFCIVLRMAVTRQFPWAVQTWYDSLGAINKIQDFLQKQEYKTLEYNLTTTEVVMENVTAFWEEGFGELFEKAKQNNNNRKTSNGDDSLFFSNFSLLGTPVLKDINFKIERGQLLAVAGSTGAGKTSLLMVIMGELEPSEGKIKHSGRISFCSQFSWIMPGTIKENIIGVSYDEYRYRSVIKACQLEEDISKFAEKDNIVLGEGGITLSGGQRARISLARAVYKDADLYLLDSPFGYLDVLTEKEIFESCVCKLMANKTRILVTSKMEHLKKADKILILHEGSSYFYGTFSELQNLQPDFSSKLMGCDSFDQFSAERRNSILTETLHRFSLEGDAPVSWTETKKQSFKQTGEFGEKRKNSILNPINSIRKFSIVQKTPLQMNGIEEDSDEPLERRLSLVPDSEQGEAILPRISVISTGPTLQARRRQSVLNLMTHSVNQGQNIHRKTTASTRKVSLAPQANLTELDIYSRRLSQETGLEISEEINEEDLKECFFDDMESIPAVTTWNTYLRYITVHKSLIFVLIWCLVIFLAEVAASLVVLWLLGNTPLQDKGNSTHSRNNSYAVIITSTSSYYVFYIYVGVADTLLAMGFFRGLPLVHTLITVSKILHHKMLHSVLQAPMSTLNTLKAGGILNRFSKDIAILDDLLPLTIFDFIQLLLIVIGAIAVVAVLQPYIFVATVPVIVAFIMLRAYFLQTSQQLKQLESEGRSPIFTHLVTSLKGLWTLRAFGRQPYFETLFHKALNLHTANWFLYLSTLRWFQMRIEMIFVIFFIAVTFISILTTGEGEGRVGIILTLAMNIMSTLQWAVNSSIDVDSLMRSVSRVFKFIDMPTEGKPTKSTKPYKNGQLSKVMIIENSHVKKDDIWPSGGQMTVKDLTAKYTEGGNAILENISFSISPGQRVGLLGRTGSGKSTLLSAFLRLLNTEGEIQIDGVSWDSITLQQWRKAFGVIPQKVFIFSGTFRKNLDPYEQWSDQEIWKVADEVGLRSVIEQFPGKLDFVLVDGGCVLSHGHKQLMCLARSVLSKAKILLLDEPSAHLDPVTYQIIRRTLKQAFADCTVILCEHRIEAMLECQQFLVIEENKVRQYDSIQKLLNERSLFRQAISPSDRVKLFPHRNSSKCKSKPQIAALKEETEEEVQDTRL
Description: The YFP halide influx assay measures the functionality of the cystic fibrosis Transmembrane Conductance regulator (CFTR) channels in the cystic fibrosis bronchial epithelium cell line CFBE41o-. The assay is used to evaluate the capacity of compounds to increase the open probability of existing CFTR channels in the membrane. It makes use of the observation that the yellow fluorescent protein (YFP) variant YFP H148Q, I152L has its fluorescence substantially quenched by halide ions like Cl— and I—. (Galietta, Haggie, & Verkman, 2001) (Nagai, et al., 2002)
For this purpose, CFBE41o-cells are seeded in 384 well plates (3000 CFBE cells/well). One day after seeding, the CFBE cells are transduced with adenoviral vectors that direct the expression of the CFTR ΔF508 mutant and of the YFP reporter. Cells are incubated at 27° C., 5% CO2 for 24 hours so as to allow for the proper folding and migration to the membrane of the CFTR channel or treated with a CFTR modulator during 24 h at 37° C.
(§1) The I— induced quenching of fluorescence is recorded on an immediately after injection of I— for 2 min on an FDSS/μCell (Hamamatsu). The capacity of a compound to increase the channel opening is directly correlated with the decrease in fluorescence, and is expressed as (1-(fluorescence after 36 seconds (F)/fluorescence before injection (F0))) and an EC50 can be derived from a (1-F/F0) vs compound concentration plot.

CFTR G551D mutant = target: T2, CFTR G551D mutant (Homo sapiens, UniProt P13569, G551D); assay: YFP-halide influx assay for the CFTR-G551D mutation; type: cell-based; conditions: HEK293 cells, forskolin 10.67 μM
T2 construct: expressed in transfected cells; host or cells: HEK293 (reverse transfection with plasmid)
T2 sequence (P13569 whole entry G551D): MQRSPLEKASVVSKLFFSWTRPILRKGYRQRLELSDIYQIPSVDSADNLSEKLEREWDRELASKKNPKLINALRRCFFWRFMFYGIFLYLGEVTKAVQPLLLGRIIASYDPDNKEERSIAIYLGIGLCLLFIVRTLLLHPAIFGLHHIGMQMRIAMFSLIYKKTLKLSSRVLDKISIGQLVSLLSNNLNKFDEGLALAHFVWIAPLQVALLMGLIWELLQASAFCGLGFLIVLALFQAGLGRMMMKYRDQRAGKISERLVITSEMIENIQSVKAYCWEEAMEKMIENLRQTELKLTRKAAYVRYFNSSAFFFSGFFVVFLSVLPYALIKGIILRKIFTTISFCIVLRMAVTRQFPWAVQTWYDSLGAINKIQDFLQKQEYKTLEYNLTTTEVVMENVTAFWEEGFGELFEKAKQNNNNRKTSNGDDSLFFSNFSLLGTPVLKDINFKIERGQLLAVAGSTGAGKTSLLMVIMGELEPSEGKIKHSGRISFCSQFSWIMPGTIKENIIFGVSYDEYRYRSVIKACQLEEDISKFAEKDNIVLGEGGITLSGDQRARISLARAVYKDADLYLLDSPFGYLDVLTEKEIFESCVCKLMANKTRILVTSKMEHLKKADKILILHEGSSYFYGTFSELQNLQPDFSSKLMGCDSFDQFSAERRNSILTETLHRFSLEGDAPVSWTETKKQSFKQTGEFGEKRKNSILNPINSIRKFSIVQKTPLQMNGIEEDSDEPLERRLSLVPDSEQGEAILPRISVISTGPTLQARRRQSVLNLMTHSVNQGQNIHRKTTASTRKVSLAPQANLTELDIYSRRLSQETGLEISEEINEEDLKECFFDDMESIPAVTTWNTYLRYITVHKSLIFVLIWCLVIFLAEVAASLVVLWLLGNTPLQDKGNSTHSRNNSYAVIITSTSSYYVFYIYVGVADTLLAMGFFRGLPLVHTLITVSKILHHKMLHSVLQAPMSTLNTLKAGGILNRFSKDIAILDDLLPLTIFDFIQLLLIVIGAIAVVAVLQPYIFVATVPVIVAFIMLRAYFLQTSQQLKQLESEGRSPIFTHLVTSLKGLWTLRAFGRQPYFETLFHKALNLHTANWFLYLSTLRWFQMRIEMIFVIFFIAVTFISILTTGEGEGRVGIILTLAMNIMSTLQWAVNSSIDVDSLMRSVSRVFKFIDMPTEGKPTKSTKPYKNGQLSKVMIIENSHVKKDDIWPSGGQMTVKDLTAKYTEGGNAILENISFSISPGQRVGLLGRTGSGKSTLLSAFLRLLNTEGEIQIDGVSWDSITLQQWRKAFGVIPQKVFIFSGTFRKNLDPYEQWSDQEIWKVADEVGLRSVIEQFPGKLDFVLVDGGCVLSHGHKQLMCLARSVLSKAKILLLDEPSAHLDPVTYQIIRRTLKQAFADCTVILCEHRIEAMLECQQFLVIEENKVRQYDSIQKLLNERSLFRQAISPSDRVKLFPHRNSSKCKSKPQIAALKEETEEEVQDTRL
Description: The YFP halide influx assay measures the functionality of the cystic fibrosis Transmembrane Conductance regulator (CFTR) channels. The assay is used to evaluate the capacity of compounds to increase the channel opening of existing mutant CFTR channels in the membrane. It makes use of the observation that the yellow fluorescent protein (YFP) variant YFP H148Q, I152L, […] has its fluorescence substantially quenched by halide ions like Cl^− and I^−. (Galietta, Haggie, & Verkman, 2001)
For this purpose, HEK293-cells are seeded in 96 well plates. During seeding, the cells are reverse-transfected with plasmid vectors that direct the expression of the CFTR G551D mutant and of the YFP reporter. Cells are incubated at 37° C., 5% CO2 for 24 hours so as to allow for sufficient expression of the CFTR protein.
as §1, with “I^−-induced” for “I— induced”, “recorded” for “recorded on an”, “I^−” for “I—”, “7 seconds.” for “2 min on an FDSS/μCell (Hamamatsu).”, “7” for “36”

SMILES	EC50 (CFTR ΔF508 mutant)	EC50 (CFTR G551D mutant)
CC(C)(O)C(=O)Nc1sc(S(=O)(=O)c2cc(F)c(F)cc2Cl)cc1C(N)=O [Compound 336, 5-(2-Chloro-4,5-difluoro-benzenesulfonyl)-2-(2-hydroxy-2-methyl-propionylamino)-thiophene-3-carboxylic acid amide]	0.0122 µM	0.872 µM
NC(=O)c1cc(S(=O)(=O)c2cc(F)ccc2CC(F)(F)F)sc1NC(=O)CO [Compound 340, 5-[5-Fluoro-2-(2,2,2-trifluoro-ethyl)-benzenesulfonyl]-2-(2-hdyroxy-acetylamino)-thiophene-3-carboxylic acid amide]	0.008 µM	0.478 µM
CC(C)C(O)C(=O)Nc1sc(S(=O)(=O)c2ccc(F)cc2)cc1C(N)=O (stereo not shown) [Compound 341, 5-(4-fluorophenyl)sulfonyl-2-[(2-hydroxy-3-methyl-butanoyl)amino] thiophene-3-carboxamide]	0.0202 µM	1.51 µM
CC(C)CC(O)C(=O)Nc1sc(S(=O)(=O)c2ccc(F)cc2)cc1C(N)=O (stereo not shown) [Compound 343, 5-(4-fluorophenyl)sulfonyl-2-[(2-hydroxy-4-methyl-pentanoyl)amino] thiophene-3-carboxamide]	0.0924 µM	1.42 µM
CC(C)(O)C(=O)Nc1sc(S(=O)(=O)c2ccc(C(F)(F)F)cc2)cc1C(N)=O [Compound 344, 2-[(2-hydroxy-2-methyl-propanoyl)amino]-5-[4-(trifluoromethyl)phenyl] sulfonyl-thiophene-3-carboxamide]	0.036 µM	0.237 µM
CC(C)CC(O)C(=O)Nc1sc(S(=O)(=O)c2ccc(OC(F)(F)F)cc2)cc1C(N)=O (stereo not shown) [Compound 346, 2-[(2-hydroxy-4-methyl-pentanoyl)amino]-5-[4-(trifluoromethoxy)phenyl] sulfonyl-thiophene-3-carboxamide]	0.47 µM	0.682 µM
CC(C)(C)C(O)C(=O)Nc1sc(S(=O)(=O)c2ccc(OC(F)(F)F)cc2)cc1C(N)=O (stereo not shown) [Compound 349, 2-[(2-hydroxy-3,3-dimethyl-butanoyl)amino]-5-[4-(trifluoromethoxy)phenyl] sulfonyl-thiophene-3-carboxamide]	0.343 µM	0.931 µM
CC(CO)C(=O)Nc1sc(S(=O)(=O)c2ccc(OC(F)(F)F)cc2)cc1C(N)=O (stereo not shown) [Compound 350, 2-[(3-hydroxy-2-methyl-propanoyl)amino]-5-[4-(trifluoromethoxy)phenyl] sulfonyl-thiophene-3-carboxamide]	0.039 µM	0.668 µM
CC(C)[C@H](O)C(=O)Nc1sc(S(=O)(=O)c2ccc(F)cc2C(F)(F)F)cc1C(N)=O [Compound 356, 5-[4-fluoro-2-(trifluoromethyl)phenyl] sulfonyl-2-[[(2S)-2-hydroxy-3-methyl-butanoyl]amino] thiophene-3-carboxamide]	0.0172 µM	0.502 µM
NC(=O)c1cc(S(=O)(=O)c2ccc(OC(F)(F)F)cc2)sc1NC(=O)C1(CO)CC1 [Compound 357, 2-[[1-(hydroxymethyl)cyclopropanecarbonyl]amino]-5-[4-(trifluoromethoxy)phenyl] sulfonyl-thiophene-3-carboxamide]	0.0297 µM	0.301 µM
CC(C)(O)C(=O)Nc1sc(S(=O)(=O)c2ccc(Cl)cc2)cc1C(N)=O [Compound 358, 5-(4-chlorophenyl)sulfonyl-2-[(2-hydroxy-2-methyl-propanoyl)amino] thiophene-3-carboxamide]	0.11 µM	2.68 µM
CC(C)[C@H](O)C(=O)Nc1sc(S(=O)(=O)c2ccc(F)cc2Cl)cc1C(N)=O [Compound 361, 5-(2-chloro-4-fluoro-phenyl)sulfonyl-2-[[(2S)-2-hydroxy-3-methyl-butanoyl]amino] thiophene-3-carboxamide]	0.00701 µM	0.28 µM
CC(CO)C(=O)Nc1sc(S(=O)(=O)c2ccc(Cl)cc2)cc1C(N)=O (stereo not shown) [Compound 362, 5-(4-chlorophenyl)sulfonyl-2-[(3-hydroxy-2-methyl-propanoyl)amino] thiophene-3-carboxamide]	0.0223 µM	1.23 µM
NC(=O)c1cc(S(=O)(=O)c2ccc(OC(F)(F)F)cc2)sc1NC(=O)C1(CO)CCC1 [Compound 364, 2-[[1-(hydroxymethyl)cyclobutanecarbonyl]amino]-5-[4-(trifluoromethoxy)phenyl] sulfonyl-thiophene-3-carboxamide]	0.0304 µM	0.366 µM
COc1ccc(OC(F)(F)F)c(S(=O)(=O)c2cc(C(N)=O)c(NC(=O)C(C)CO)s2)c1 (stereo not shown) [Compound 370, 2-[(3-hydroxy-2-methyl-propanoyl)amino]-5-[5-methoxy-2-(trifluoromethoxy)phenyl]sulfonyl-thiophene-3-carboxamide]	0.0025 µM	0.0574 µM
COCCOc1ccc(S(=O)(=O)c2cc(C(N)=O)c(NC(=O)C(C)(C)O)s2)cc1 [Compound 371, 2-[(2-hydroxy-2-methyl-propanoyl)amino]-5-[4-(2-methoxyethoxy)phenyl] sulfonyl-1-thiophene-3-carboxamide]	0.107 µM	3.33 µM
CC(C)(O)C(=O)Nc1sc(S(=O)(=O)c2ccc(OC(F)(F)F)c(F)c2F)cc1C(N)=O [Compound 378, 5-[2,3-difluoro-4-(trifluoromethoxy)phenyl] sulfonyl-2-[(2-hydroxy-2-methyl-propanoyl)amino] thiophene-3-carboxamide]	0.0261 µM	1.85 µM

Second part, the compound after the results:

EC50 (CFTR ΔF508 mutant)	EC50 (CFTR G551D mutant)	SMILES
0.0054 µM	0.859 µM	CC(C)(O)C(=O)Nc1sc(S(=O)(=O)c2cc(F)ccc2CC(F)(F)F)cc1C(N)=O [Compound 338, 5-[5-fluoro-2-(2,2,2-trifluoroethyl)phenyl]sulfonyl-2-[(2-hydroxy-2-methyl-propanoyl)amino] thiophene-3-carboxamide]
0.0081 µM	1.75 µM	NC(=O)c1cc(S(=O)(=O)c2cc(F)ccc2Cl)sc1NC(=O)CO [Compound 339, 5-(2-Chloro-5-fluoro-benzensulfonyl)-2-(2-hydroxy-acetylamino)-thiophene-3-carboxylic acid amide]
0.105 µM	0.771 µM	CC(C)(C)C(O)C(=O)Nc1sc(S(=O)(=O)c2ccc(F)cc2)cc1C(N)=O (stereo not shown) [Compound 342, 5-(4-fluorophenyl)sulfonyl-2-[(2-hydroxy-3,3-dimethyl-butanoyl)amino] thiophene-3-carboxamide]
0.111 µM	0.528 µM	CC(C)C(O)C(=O)Nc1sc(S(=O)(=O)c2ccc(OC(F)(F)F)cc2)cc1C(N)=O (stereo not shown) [Compound 345, 2-[(2-hydroxy-3-methyl-butanoyl)amino]-5-[4-(trifluoromethoxy)phenyl] sulfonyl-thiophene-3-carboxamide]
0.003 µM	0.0373 µM	CC(CO)C(=O)Nc1sc(S(=O)(=O)c2cc(F)ccc2OC(F)(F)F)cc1C(N)=O (stereo not shown) [Compound 351, 5-[5-fluoro-2-(trifluoromethoxy)phenyl] sulfonyl-2-[(3-hydroxy-2-methyl-propanoyl)amino] thiophene-3-carboxamide]
0.0054 µM	0.942 µM	C[C@H](O)C(=O)Nc1sc(S(=O)(=O)c2c(Cl)cc(F)cc2Cl)cc1C(N)=O [Compound 355, 5-(2,6-dichloro-4-fluoro-phenyl)sulfonyl-2-[[(2S)-2-hydroxypropanoyl]amino] thiophene-3-carboxamide]
0.00963 µM	2.06 µM	CC(CO)C(=O)Nc1sc(S(=O)(=O)c2ccc(F)cc2C(F)(F)F)cc1C(N)=O (stereo not shown) [Compound 359, 5-[4-fluoro-2-(trifluoromethyl)phenyl] sulfonyl-2-[(3-hydroxy-2-methyl-propanoyl)amino] thiophene-3-carboxamide]
0.0299 µM	0.306 µM	CC(C)(C)[C@H](O)C(=O)Nc1sc(S(=O)(=O)c2ccc(C(F)(F)F)cc2)cc1C(N)=O [Compound 365, 2-[[(2S)-2-hydroxy-3,3-dimethyl-butanoyl]amino]-5-[4-(trifluoromethyl)phenyl] sulfonyl-thiophene-3-carboxamide]
0.0048 µM	0.0726 µM	CC(C)(O)C(=O)Nc1sc(S(=O)(=O)c2cc(C#N)ccc2OC(F)(F)F)cc1C(N)=O [Compound 372, 5-[5-cyano-2-(trifluoromethoxy)phenyl] sulfonyl-2-[(2-hydroxy-2-methyl-propanoyl)amino] thiophene-3-carboxamide]
